Source: patent US20250215030A1, “STAT MODULATORS AND USES THEREOF” (Recludix Pharma, Inc., priority 2022, published 2025)

How the values were obtained:
[1] = target: T1, Recombinant STAT6 protein (STAT6(W123-T658)) (Homo sapiens, UniProt P42226); experiment: STAT6 Fluorescence Polarization (FP) Assay; assay type: binding; settings: STAT6(W123-T658) 250 nM, probe 5-FAM-ApYKPFQDLI-NH2 2 nM, 45-minute incubation
T1 construct: STAT6(W123-T658)
T1 sequence (P42226 123-658): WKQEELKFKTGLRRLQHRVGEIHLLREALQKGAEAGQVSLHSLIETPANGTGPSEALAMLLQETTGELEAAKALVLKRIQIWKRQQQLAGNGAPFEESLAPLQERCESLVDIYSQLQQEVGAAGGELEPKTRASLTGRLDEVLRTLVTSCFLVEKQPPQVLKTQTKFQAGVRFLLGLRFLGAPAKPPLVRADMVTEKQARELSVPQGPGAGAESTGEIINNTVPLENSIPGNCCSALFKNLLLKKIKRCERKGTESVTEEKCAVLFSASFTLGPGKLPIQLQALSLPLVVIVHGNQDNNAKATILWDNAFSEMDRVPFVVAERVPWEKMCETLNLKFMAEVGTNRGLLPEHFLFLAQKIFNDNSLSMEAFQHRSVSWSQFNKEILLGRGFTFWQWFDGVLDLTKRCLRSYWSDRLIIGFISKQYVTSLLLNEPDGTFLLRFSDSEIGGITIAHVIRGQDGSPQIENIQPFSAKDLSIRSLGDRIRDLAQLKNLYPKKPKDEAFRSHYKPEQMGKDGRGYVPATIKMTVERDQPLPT
In short: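 Competitive displacement of a fluorescent phosphotyrosine peptide (2 nM) from recombinant STAT6 W123-T658 (250 nM), 45 min at room temperature in 10 mM HEPES pH 7.4, 50 mM NaCl, 2 mM DTT. mP fitted against log compound for IC50, grouped A (≤300 nM) to D (>30 μM).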

[2] = target: T2, Recombinant STAT3 protein (STAT3(G127-I722)) (Homo sapiens, UniProt P40763); experiment: STAT3 Fluorescence Polarization (FP) Assay; assay type: binding; settings: STAT3(G127-I722) 25 nM, probe 5-FAM-GpYLPQTV-NH2 2 nM, 45-minute incubation
T2 construct: STAT3(G127-I722)
T2 sequence (P40763 127-722, species assumed): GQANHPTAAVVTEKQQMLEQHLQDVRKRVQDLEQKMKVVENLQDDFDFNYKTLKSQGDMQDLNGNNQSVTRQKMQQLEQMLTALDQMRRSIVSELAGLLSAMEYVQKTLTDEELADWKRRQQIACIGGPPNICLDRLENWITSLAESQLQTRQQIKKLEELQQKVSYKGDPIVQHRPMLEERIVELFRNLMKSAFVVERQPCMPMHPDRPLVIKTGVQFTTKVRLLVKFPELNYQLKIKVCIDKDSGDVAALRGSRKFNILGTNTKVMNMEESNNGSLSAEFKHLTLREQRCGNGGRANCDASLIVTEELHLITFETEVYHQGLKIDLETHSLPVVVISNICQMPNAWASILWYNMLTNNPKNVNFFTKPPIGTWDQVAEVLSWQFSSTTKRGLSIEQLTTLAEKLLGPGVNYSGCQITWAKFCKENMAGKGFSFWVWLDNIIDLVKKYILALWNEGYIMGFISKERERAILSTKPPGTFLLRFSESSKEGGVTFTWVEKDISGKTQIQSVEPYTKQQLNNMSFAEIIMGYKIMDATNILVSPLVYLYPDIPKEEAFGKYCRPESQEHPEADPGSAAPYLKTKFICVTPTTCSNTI
In short: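 Serially diluted compounds (1% DMSO) were mixed with 2 nM fluorescent phosphotyrosine peptide and 25 nM STAT3 construct G127-I722, pH 7.4, incubated 45 min at room temperature. IC50 values from fitted polarization curves are reported as categories A (≤100 nM), B, C, D (>10 μM).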

| SMILES | IC50 [1] [µM] | IC50 [2] [µM] |
| --- | --- | --- |
| Cn1ccnc1N1C[C@H](NC(=O)[C@@H]2CC[C@@H]3C[C@H]4C[C@H]4C[C@H](NC(=O)c4cc5cc(C(F)P(=O)(O)O)ccc5s4)C(=O)N32)[C@@H](F)C1 (stereo partly drawn) [Example 367, (fluoro(2-(((3S,6S,7aS,8aR,9aR)-3-(((3S,4S)-4-fluoro-1-(1-methyl-1H-imidazol-2-yl)pyrrolidin-3-yl)carbamoyl)-5-oxodecahydro-1H-cyclopropa[d]pyrrolo[1,2-a]azocin-6-yl)carbamoyl)benzo[b]thiophen-5-yl)methyl)phosphonic acid] | 3 to 30 | < 0.1 |
| O=C(N[C@H]1C[C@@H]2C[C@@H]2C[C@H]2CC[C@@H](C(=O)N3CC(Cc4ccccc4F)C3)N2C1=O)c1cc2cc(CP(=O)(O)O)ccc2s1 [Example 368, ((2-(((3S,6S,7aS,8aR,9aR)-3-(3-(2-fluorobenzyl)azetidine-1-carbonyl)-5-oxodecahydro-1H-cyclopropa[d]pyrrolo[1,2-a]azocin-6-yl)carbamoyl)benzo[b]thiophen-5-yl)methyl)phosphonic acid] | 3 to 30 | 1 to 10 |
| O=C(N[C@H]1C[C@@H]2C[C@@H]2C[C@H]2CC[C@@H](C(=O)N3CC(Cc4ccc(F)cc4)C3)N2C1=O)c1cc2cc(CP(=O)(O)O)ccc2s1 [Example 369, ((2-(((3S,6S,7aS,8aR,9aR)-3-(3-(4-fluorobenzyl)azetidine-1-carbonyl)-5-oxodecahydro-1H-cyclopropa[d]pyrrolo[1,2-a]azocin-6-yl)carbamoyl)benzo[b]thiophen-5-yl)methyl)phosphonic acid] | 3 to 30 | 0.1 to 1 |
| O=C(N[C@H]1C[C@@H]2C[C@@H]2C[C@H]2CC[C@@H](C(=O)N3CC(c4cc(C(F)F)on4)C3)N2C1=O)c1cc2cc(C(F)P(=O)(O)O)ccc2s1 (stereo partly drawn) [Example 375, ((2-(((3S,6S,7aS,8aR,9aR)-3-(3-(5-(difluoromethyl)isoxazol-3-yl)azetidine-1-carbonyl)-5-oxodecahydro-1H-cyclopropa[d]pyrrolo[1,2-a]azocin-6-yl)carbamoyl)benzo[b]thiophen-5-yl)fluoromethyl)phosphonic acid] | 3 to 30 | 0.1 to 1 |
| Cc1cnc(N2C[C@H](NC(=O)[C@@H]3CC[C@@H]4C[C@H]5C[C@H]5C[C@H](NC(=O)c5cc6cc(C(F)P(=O)(O)O)ccc6s5)C(=O)N43)[C@@H](F)C2)n1C (stereo partly drawn) [Example 376, ((2-(((3S,6S,7aS,8aR,9aR)-3-(((3S,4S)-1-(1,5-dimethyl-1H-imidazol-2-yl)-4-fluoropyrrolidin-3-yl)carbamoyl)-5-oxodecahydro-1H-cyclopropa[d]pyrrolo[1,2-a]azocin-6-yl)carbamoyl)benzo[b]thiophen-5-yl)fluoromethyl)phosphonic acid] | 3 to 30 | < 0.1 |
| O=C(N[C@H]1C[C@@H]2C[C@@H]2C[C@H]2CC[C@@H](C(=O)N3CC(Cc4ccc(F)cc4F)C3)N2C1=O)c1cc2cc(CP(=O)(O)O)ccc2s1 [Example 377, ((2-(((3S,6S,7aS,8aR,9aR)-3-(3-(2,4-difluorobenzyl)azetidine-1-carbonyl)-5-oxodecahydro-1H-cyclopropa[d]pyrrolo[1,2-a]azocin-6-yl)carbamoyl)benzo[b]thiophen-5-yl)methyl)phosphonic acid] | 3 to 30 | 0.1 to 1 |
| O=C(N[C@H]1C[C@@H]2C[C@@H]2C[C@H]2CC[C@@H](C(=O)N3CC(Cc4cc(F)ccc4F)C3)N2C1=O)c1cc2cc(CP(=O)(O)O)ccc2s1 [Example 378, ((2-(((3S,6S,7aS,8aR,9aR)-3-(3-(2,5-difluorobenzyl)azetidine-1-carbonyl)-5-oxodecahydro-1H-cyclopropa[d]pyrrolo[1,2-a]azocin-6-yl)carbamoyl)benzo[b]thiophen-5-yl)methyl)phosphonic acid] | 3 to 30 | 1 to 10 |
| Cn1cc(CC2CN(C(=O)[C@@H]3CC[C@@H]4C[C@H]5C[C@H]5C[C@H](NC(=O)c5cc6cc(CP(=O)(O)O)ccc6s5)C(=O)N43)C2)cn1 [Example 379, ((2-(((3S,6S,7aS,8aR,9aR)-3-(3-((1-methyl-1H-pyrazol-4-yl)methyl)azetidine-1-carbonyl)-5-oxodecahydro-1H-cyclopropa[d]pyrrolo[1,2-a]azocin-6-yl)carbamoyl)benzo[b]thiophen-5-yl)methyl)phosphonic acid] | 3 to 30 | 1 to 10 |
| O=C(N[C@H]1C[C@@H]2C[C@@H]2C[C@H]2CC[C@@H](C(=O)N3CC(Cc4cccnc4)C3)N2C1=O)c1cc2cc(CP(=O)(O)O)ccc2s1 [Example 380, ((2-(((3S,6S,7aS,8aR,9aR)-5-oxo-3-(3-(pyridin-3-ylmethyl)azetidine-1-carbonyl)decahydro-1H-cyclopropa[d]pyrrolo[1,2-a]azocin-6-yl)carbamoyl)benzo[b]thiophen-5-yl)methyl)phosphonic acid] | 3 to 30 | 0.1 to 1 |
| O=C(N[C@H]1C[C@@H]2C[C@@H]2C[C@H]2CC[C@@H](C(=O)N3CCN(C4COC4)c4ccccc43)N2C1=O)c1cc2cc(C(F)P(=O)(O)O)ccc2s1 (stereo partly drawn) [Example 387, (fluoro(2-(((3S,6S,7aS,8aR,9aR)-3-(4-(oxetan-3-yl)-1,2,3,4-tetrahydroquinoxaline-1-carbonyl)-5-oxodecahydro-1H-cyclopropa[d]pyrrolo[1,2-a]azocin-6-yl)carbamoyl)benzo[b]thiophen-5-yl)methyl)phosphonic acid] | 3 to 30 | 1 to 10 |

The remaining lines, values ahead:

| IC50 [1] [µM] | IC50 [2] [µM] | SMILES |
| --- | --- | --- |
| 3 to 30 | 1 to 10 | O=C(N[C@H]1C[C@@H]2C[C@@H]2C[C@H]2CC[C@@H](C(=O)N3CCOc4ccccc43)N2C1=O)c1cc2cc(C(F)P(=O)(O)O)ccc2s1 (stereo partly drawn) [Example 372, ((2-(((3S,6S,7aS,8aR,9aR)-3-(3,4-dihydro-2H-benzo[b][1,4]oxazine-4-carbonyl)-5-oxodecahydro-1H-cyclopropa[d]pyrrolo[1,2-a]azocin-6-yl)carbamoyl)benzo[b]thiophen-5-yl)fluoromethyl)phosphonic acid] |
| 3 to 30 | 1 to 10 | O=C(N[C@H]1C[C@@H]2C[C@@H]2C[C@H]2CC[C@@H](C(=O)N3CCCOc4ccccc43)N2C1=O)c1cc2cc(C(F)P(=O)(O)O)ccc2s1 (stereo partly drawn) [Example 373, (fluoro(2-(((3S,6S,7aS,8aR,9aR)-5-oxo-3-(2,3,4,5-tetrahydrobenzo[b][1,4]oxazepine-5-carbonyl)decahydro-1H-cyclopropa[d]pyrrolo[1,2-a]azocin-6-yl)carbamoyl)benzo[b]thiophen-5-yl)methyl)phosphonic acid] |
| 0.3 to 3 | 1 to 10 | Cc1ccc2c(c1)OCCN2C(=O)[C@@H]1CC[C@@H]2C[C@H]3C[C@H]3C[C@H](NC(=O)c3cc4cc(C(F)P(=O)(O)O)ccc4s3)C(=O)N21 (stereo partly drawn) [Example 383, (fluoro(2-(((3S,6S,7aS,8aR,9aR)-3-(7-methyl-3,4-dihydro-2H-benzo[b][1,4]oxazine-4-carbonyl)-5-oxodecahydro-1H-cyclopropa[d]pyrrolo[1,2-a]azocin-6-yl)carbamoyl)benzo[b]thiophen-5-yl)methyl)phosphonic acid] |
| 3 to 30 | 1 to 10 | O=C(N[C@H]1C[C@@H]2C[C@@H]2C[C@H]2CC[C@@H](C(=O)N3CCOc4cc(F)ccc43)N2C1=O)c1cc2cc(C(F)P(=O)(O)O)ccc2s1 (stereo partly drawn) [Example 384, (fluoro(2-(((3S,6S,7aS,8aR,9aR)-3-(7-fluoro-3,4-dihydro-2H-benzo[b][1,4]oxazine-4-carbonyl)-5-oxodecahydro-1H-cyclopropa[d]pyrrolo[1,2-a]azocin-6-yl)carbamoyl)benzo[b]thiophen-5-yl)methyl)phosphonic acid] |
| 3 to 30 | 1 to 10 | O=C(N[C@H]1C[C@@H]2C[C@@H]2C[C@H]2CC[C@@H](C(=O)N3CCOc4cccnc43)N2C1=O)c1cc2cc(C(F)P(=O)(O)O)ccc2s1 (stereo partly drawn) [Example 385, ((2-(((3S,6S,7aS,8aR,9aR)-3-(3,4-dihydro-2H-pyrido[3,2-b][1,4]oxazine-4-carbonyl)-5-oxodecahydro-1H-cyclopropa[d]pyrrolo[1,2-a]azocin-6-yl)carbamoyl)benzo[b]thiophen-5-yl)fluoromethyl)phosphonic acid] |
| 0.3 to 3 | 1 to 10 | O=C(N[C@H]1C[C@@H]2C[C@@H]2C[C@H]2CC[C@@H](C(=O)N3CCOc4ncccc43)N2C1=O)c1cc2cc(C(F)P(=O)(O)O)ccc2s1 (stereo partly drawn) [Example 386, ((2-(((3S,6S,7aS,8aR,9aR)-3-(2,3-dihydro-1H-pyrido[2,3-b][1,4]oxazine-1-carbonyl)-5-oxodecahydro-1H-cyclopropa[d]pyrrolo[1,2-a]azocin-6-yl)carbamoyl)benzo[b]thiophen-5-yl)fluoromethyl)phosphonic acid] |
